This note sets out measurements from patent US11925621B2, “Medicinal preparation for external use” (Sumitomo Pharma Co., Ltd., priority 2018, dated 2024).

Data set [1] deals with SNL model rats. In words: Analgesic effect in a fifth lumbar nerve ligation (SNL) model, von Frey test. The data set is classed as in vivo, Wistar rats. The following applies: for extension range of reaction thresholds ± standard error (50% paw withdrawal threshold, after minus before administration): about 10 mg formulation on footpad for 1 hour, evaluated another 1 hour after removal, n=9; for extension range of reaction thresholds compared with the vehicle group: about 10 mg formulation on footpad, versus vehicle (Control example 1). The protocol:
Test 2. […] A SNL model was prepared by a method of Kim and Chung (Pain 50, 355-363, 1992) with partial modification thereof. Specifically, male 5-week-old Wistar rats were anesthetized with pentobarbital and isoflurane inhalation, and under anesthesia, an unilateral fifth lumber nerve was exposed. Then, the fifth lumber nerve was ligated with a silk surgical suture to obtain a SNL model. Evaluation of the analgesic effect was conducted with the von Frey test. Specifically, an animal was poked with a von Frey hair on a footpad in a hind limb of an animal at the side of operation. Reaction thresholds (50% paw withdrawal thresholds) to mechanical stimulation were calculated with a formula according to a method of Chaplan (Journal of Neuroscience Methods 53, 55-63, 1994). […] Reaction thresholds were measured on one and two days before the evaluation of test compounds, and an average of the measured values was determined as the reaction threshold before administration of test compounds. […] One day after the division into groups, test compounds were administered. […] Administration of a test compound was carried out by application of about 10 mg of each formulation on a medical adhesive film, and attachment of the film to a footpad of a SNL rat at the side of operation under anesthesia with isoflurane inhalation. One hour after the application, the film was removed, and another one hour after, reaction thresholds after administration of the test compound were evaluated. After the evaluation, blood was immediately collected from a cervical vein, and the concentration of the test compound in plasma was measured. The efficacy of the analgesic effect of a test compound is shown as an extension range of reaction thresholds±standard error (g) by the following formula: (Reaction threshold after administration of a test compound)−(Reaction threshold before administration of a test compound).

A short description of data set [2]: Concentration of the test compound in plasma after evaluation in SNL rats. The data set is classed as in vivo. The following applies: Wistar, rat, topical about 10 mg formulation, blood collected immediately after evaluation (2 hours after application). As for the experimental part:
One day after the division into groups, test compounds were administered. […] Administration of a test compound was carried out by application of about 10 mg of each formulation on a medical adhesive film, and attachment of the film to a footpad of a SNL rat at the side of operation under anesthesia with isoflurane inhalation. One hour after the application, the film was removed, and another one hour after, reaction thresholds after administration of the test compound were evaluated. After the evaluation, blood was immediately collected from a cervical vein, and the concentration of the test compound in plasma was measured.

The subject of data set [3] is ECG (electrocardiogram) parameters of guinea pigs. In words: Safety pharmacology study of the cardiovascular system: ECG parameters under anesthesia. The format is in vivo. The following applies: for effect on the cardiovascular system / ECG parameters: guinea pigs under anesthesia, continuous intravenous administration. As for the experimental part: Test 3. […] Evaluation of ECG of guinea pigs was conducted under anesthesia with intra-abdominal administration of a mixed solution of urethane and α-chloralose. Guinea pigs under anesthesia were retained in a supine position, and a right cervical vein was exposed to […] cannula. […] QRS interval and QTc interval are shown as rates of change (%) by similar equations.

Data set [4] in a line: Concentration in plasma during continuous intravenous administration in guinea pigs. The note with it: dose of 30 mg/kg continuous intravenous for 30 minutes. The format is in vivo. As for the experimental part: Evaluation of ECG of guinea pigs was conducted under anesthesia with intra-abdominal administration of a mixed solution of urethane and α-chloralose. Guinea pigs under anesthesia were retained in a supine position, and a right cervical vein was exposed to […] cannula. […] QRS interval and QTc interval are shown as rates of change (%) by similar equations.

The mark [5] stands for this setting: 30 mg/kg continuous intravenous for 30 minutes, at 30 minutes after administration.
Where [6] appears, read: 15 mg/kg continuous intravenous for 30 minutes, at 30 minutes after administration.

Structures are written as SMILES.

On to `CCn1c(CN[C@@H](C)C(N)=O)nc2ccc(Oc3ccc(C)cc3)cc21` [Compound A, N^2-{[1-ethyl-6-(4-methylphenoxy)-1H-benzimidazol-2-yl]methyl}-L-alaninamide], for which, in data set [1] (Example 1 ointment versus 5% lidocaine ointment), the “difference between extension ranges of reaction thresholds of Compound A and lidocaine groups” value was “no statistically significant difference”. Further, in data set [1], the “extension range of reaction thresholds ± standard error (50% paw withdrawal threshold, after minus before administration)” value was 2.2 ± 0.56 g and the “extension range of reaction thresholds compared with the vehicle group” value is “statistically significantly increased”. In data set [2], this compound gave a concentration at 2 h of 25.2 ng/mL. For the same compound, the “rates of change of each ECG parameter compared with the vehicle group” value in data set [3] (30 mg/kg continuous intravenous for 30 minutes) is “no statistically significant difference”. Moreover, in data set [3] (setting [5]), the “PR interval rate of change (prolonged)” value came out at 22.3%, the “QRS interval rate of change (prolonged)” value was found to be 10.3% and the “QTc interval rate of change (prolonged)” value is given as 9.0%. Besides, the “plasma concentration without effect on the cardiovascular system relative to that at which the analgesic effect appeared” value in data set [3] (guinea pig maximum plasma concentration at 30 mg/kg versus SNL rat plasma concentration) is “about 670 times”. Moreover, the “effect on the cardiovascular system / ECG parameters” value in data set [3] is “not observed until the dose rose to 30 mg/kg”. Further, the “maximum concentration in plasma” value in data set [4] was determined as 16.9 µg/mL.
As for `CCN(CC)CC(=O)Nc1c(C)cccc1C` [lidocaine, reference compound], in data set [1], the “extension range of reaction thresholds ± standard error (50% paw withdrawal threshold, after minus before administration)” value was found to be 4.1 ± 0.62 g and the “extension range of reaction thresholds compared with the vehicle group” value is “statistically significantly increased”. For the same compound, in data set [3] (setting [6]), the “PR interval rate of change (prolonged)” value worked out at 35.1% and the “QRS interval rate of change (prolonged)” value is 44.5%. Besides, the “effect on the cardiovascular system / ECG parameters” value in data set [3] is listed as “observed at a dose of 15 mg/kg”.
